According to patent US8815775B2 (priority 2010, dated 2014):
Where two headings read alike, the source gives them in different places.

Experiment: log P by HPLC (EEC Directive 79/831 Annex V.A8)
Format: physicochemical
Conditions: HPLC with aqueous formic acid/acetonitrile eluents, pH 2.7
Method: The log P values were measured according to EEC Directive 79/831 Annex V.A8 by HPLC (high-performance liquid chromatography).
The LC-MS determination within the acidic range is effected at pH 2.7 with 0.1% aqueous formic acid and acetonitrile (contains 0.1% formic acid) as eluents; linear gradient from 10% acetonitrile to 95% acetonitrile.
The calibration is carried out using unbranched alkan-2-ones (having 3 to 16 carbon atoms) with known log P values (determination of the log P values by the retention times using linear interpolation between two successive alkanones). The lambda-maX values were determined in the maxima of the chromatographic signals using the UV spectra from 200 nm to 400 nm.

SMILES	chromatographic logP (HCOOH, read-out: log P (HCOOH))	chromatographic logP (read-out: log P (pH2.7))
CC(C)(C)OC(=O)N1CCC(O)(c2nc(Br)cs2)CC1 [IV-1, tert-Butyl 4-(4-bromo-1,3-thiazol-2-yl)-4-hydroxypiperidine-1-carboxylate]	2.74	
CN(C(=O)c1csc(C2(F)CCN(C(=O)Cn3nc(C(F)F)cc3C(F)F)CC2)n1)C1CCCc2ccccc21 (racemic) [I-a-4, (±)-2-(1-{[3,5-bis(Difluoromethyl)-1H-pyrazol-1-yl]acetyl}-4-fluoropiperidin-4-yl)-N-methyl-N-(1,2,3,4-tetrahydronaphthalen-1-yl)-1,3-thiazole-4-carboxamide]		3.56
CCOC(=O)c1csc(C2(F)CCN(C(=O)OC(C)(C)C)CC2)n1 [VIa-1, tert-Butyl 4-[4-(ethoxycarbonyl)-1,3-thiazol-2-yl]-4-fluoropiperidine-1-carboxylate]		3.47
CCOC(=O)c1csc(C2(F)CCN(C(=O)Cn3nc(C(F)F)cc3C(F)F)CC2)n1 [IXa-1, Ethyl 2-(1-{[3,5-bis(difluoromethyl)-1H-pyrazol-1-yl]acetyl}-4-fluoropiperidin-4-yl)-1,3-thiazole-4-carboxylate]		2.82
CC(C)(C)OC(=O)N1CCC(F)(c2nc(Br)cs2)CC1 [Va-1, tert-Butyl 4-(4-bromo-1,3-thiazol-2-yl)-4-fluoropiperidine-1-carboxylate]	3.94	
O=C(O)c1csc(C2(F)CCN(C(=O)Cn3nc(C(F)F)cc3C(F)F)CC2)n1 [Xa-1, 2-(1-{[3,5-bis(Difluoromethyl)-1H-pyrazol-1-yl]acetyl}-4-fluoropiperidin-4-yl)-1,3-thiazole-4-carboxylic acid]		1.96
CCOC(=O)c1csc(C2(F)CCNCC2)n1 [VII-1, 4-[4-(Ethoxycarbonyl)-1,3-thiazol-2-yl]-4-fluoropiperidinium chloride]		0.39
